Test results as given in PubChem BioAssay AID316 (DTP/NCI, 2004).
“And” between values parts separate entries of the source, which are not always exact repeats. Equal entries are not always repeated. Inconclusive results and toxic doses are left out.

Tested on: P1534 leukemia ip, CD2F1 mice, survival T/C
Assay: NCI In Vivo Anticancer Drug Screen. Data for tumor model P1534 Leukemia (intraperitoneal) in CD2F1 (CDF1) mice
Settings: endpoint: mean survival time, higher = longer survival
Method: The antitumor activity of compounds was measured in mice bearing transplantable tumors. Survival or tumor size were measured and the results are expressed as the measurement made in the treated group (T) divided by the measurement made in the vehicle treated control group (C). The tumor model used in this assay is P1534 Leukemia (intraperitoneal) in CD2F1 (CDF1) mice

[1] = dose: 31.3 mg/kg/injection, schedule: Q01DX010 (ip), vehicle: saline
[2] = dose: 10.0 mg/kg/injection, schedule: Q01DX010 (ip), vehicle: saline
[3] = dose: 20.0 mg/kg/injection, schedule: Q01DX010 (ip), vehicle: saline
[4] = dose: 40.0 mg/kg/injection, schedule: Q01DX010 (ip), vehicle: saline
[5] = dose: 1.25 mg/kg/injection, schedule: Q01DX010 (ip), vehicle: saline
[6] = dose: 2.5 mg/kg/injection, schedule: Q01DX010 (ip), vehicle: saline
[7] = dose: 1.56 mg/kg/injection, schedule: Q01DX010 (ip), vehicle: saline
[8] = dose: 3.13 mg/kg/injection, schedule: Q01DX010 (ip), vehicle: saline
[9] = dose: 6.25 mg/kg/injection, schedule: Q01DX010 (ip), vehicle: saline
[10] = dose: 12.5 mg/kg/injection, schedule: Q01DX010 (ip), vehicle: saline
[11] = dose: 25.0 mg/kg/injection, schedule: Q01DX010 (ip), vehicle: saline
[12] = dose: 50.0 mg/kg/injection, schedule: Q01DX010 (ip), vehicle: saline
[13] = dose: 100.0 mg/kg/injection, schedule: Q01DX010 (ip), vehicle: saline

SMILES: CCn1cnc2c(=S)nc[nH]c21
- T/C [1]: 114 % of control

SMILES: COc1ccc(Cc2nccc3cc(OC)c(OC)cc23)cc1OC
- T/C [2]: 100 % of control
- T/C [3]: 100 % of control
- T/C [4]: 100 % of control
- T/C (dose: 80.0 mg/kg/injection, schedule: Q01DX010 (ip), vehicle: saline): 100 % of control

SMILES: N[C@@H](Cc1ccc(N(CCCl)CCCl)cc1)C(=O)O
- T/C [5]: 164 % of control
- T/C [6]: 189 % of control

SMILES: O=P1(N(CCCl)CCCl)NCCCO1 (stereo not drawn)
- T/C (dose: 2.9 mg/kg/injection, schedule: Q01DX010 (ip), vehicle: saline): 98 % of control
- T/C (dose: 5.7 mg/kg/injection, schedule: Q01DX010 (ip), vehicle: saline): 106 % of control
- T/C (dose: 11.3 mg/kg/injection, schedule: Q01DX010 (ip), vehicle: saline): 111 % of control

SMILES: C1CCNC1
- T/C [7]: 113 % of control
- T/C [8]: 103 % of control
- T/C [9]: 100 % of control
- T/C [10]: 103 % of control and 96 % of control
- T/C [11]: 86 % of control

SMILES: CC1CCOS(=O)O1 (stereo not drawn)
- T/C [2]: 103 % of control
- T/C [3]: 100 % of control
- T/C [4]: 100 % of control

SMILES: N#C[C@@H]1C2C=CC(CC2)[C@H]1C#N
- T/C (dose: 0.25 mg/kg/injection, schedule: Q01DX010 (ip), vehicle: saline): 100 % of control
- T/C (dose: 0.5 mg/kg/injection, schedule: Q01DX010 (ip), vehicle: saline): 103 % of control and 96 % of control
- T/C (dose: 1.0 mg/kg/injection, schedule: Q01DX010 (ip), vehicle: saline): 103 % of control and 100 % of control
- T/C (dose: 2.0 mg/kg/injection, schedule: Q01DX010 (ip), vehicle: saline): 103 % of control and 96 % of control

SMILES: NCCCCCCNCCCCCCN
- T/C [7]: 100 % of control
- T/C [8]: 100 % of control
- T/C [9]: 100 % of control
- T/C [10]: 92 % of control and 100 % of control

SMILES: CC[C@]1(O)C[C@H]2CN(CCc3c([nH]c4ccccc34)[C@@](C(=O)OC)(c3cc4c(cc3OC)N(C=O)[C@H]3[C@@](O)(C(=O)OC)[C@H](OC(C)=O)[C@]5(CC)C=CCN6CC[C@]43[C@@H]65)C2)C1
- T/C (dose: 0.02 mg/kg/injection, schedule: Q01DX010 (ip), vehicle: saline): 97 % of control
- T/C (dose: 0.03 mg/kg/injection, schedule: Q01DX010 (ip), vehicle: saline): 86 % of control
- T/C (dose: 0.05 mg/kg/injection, schedule: Q01DX010 (ip), vehicle: water): 100 % of control
- T/C (dose: 0.1 mg/kg/injection, schedule: Q01DX010 (ip), vehicle: water): 156 % of control
- T/C (dose: 0.13 mg/kg/injection, schedule: Q02DX008 (ip), vehicle: saline): 160 % of control and 259 % of control and 306 % of control
- T/C (dose: 0.15 mg/kg/injection, schedule: Q## X004 (ip), vehicle: saline): 119 % of control and 181 % of control and 234 % of control
- T/C (dose: 0.16 mg/kg/injection, schedule: Q## X032 (ip), vehicle: saline): 208 % of control
- T/C (dose: 0.2 mg/kg/injection, schedule: Q01DX010 (ip), vehicle: water): 305 % of control
- T/C (dose: 0.2 mg/kg/injection, schedule: Q02DX008 (ip), vehicle: saline): 221 % of control and 270 % of control and 290 % of control
- T/C (dose: 0.22 mg/kg/injection, schedule: Q## X004 (ip), vehicle: saline): 231 % of control and 242 % of control and 270 % of control
- T/C (dose: 0.24 mg/kg/injection, schedule: Q## X032 (ip), vehicle: saline): 187 % of control and 193 % of control and 212 % of control
- T/C (dose: 0.3 mg/kg/injection, schedule: Q02DX008 (ip), vehicle: saline): 298 % of control and 302 % of control and 352 % of control
- T/C (dose: 0.35 mg/kg/injection, schedule: Q## X004 (ip), vehicle: saline): 256 % of control and 273 % of control and 304 % of control
- T/C (dose: 0.36 mg/kg/injection, schedule: Q## X032 (ip), vehicle: saline): 234 % of control and 241 % of control and 282 % of control
- T/C (dose: 0.44 mg/kg/injection, schedule: Q02DX008 (ip), vehicle: saline): 154 % of control and 197 % of control and 358 % of control
- T/C (dose: 0.53 mg/kg/injection, schedule: Q## X004 (ip), vehicle: saline): 270 % of control and 344 % of control and 366 % of control
- T/C (dose: 0.54 mg/kg/injection, schedule: Q## X032 (ip), vehicle: saline): 274 % of control and 275 % of control and 335 % of control
- T/C (dose: 0.8 mg/kg/injection, schedule: Q## X004 (ip), vehicle: saline): 283 % of control and 357 % of control
- T/C (dose: 0.8 mg/kg/injection, schedule: Q## X032 (ip), vehicle: saline): 190 % of control and 218 % of control and 92 % of control
- T/C (dose: 1.2 mg/kg/injection, schedule: Q## X004 (ip), vehicle: saline): 152 % of control
- T/C (dose: 1.2 mg/kg/injection, schedule: Q## X032 (ip), vehicle: saline): 92 % of control
- T/C (dose: 1.45 mg/kg/injection, schedule: Q01DX001 (ip), vehicle: saline): 188 % of control and 237 % of control
- T/C (dose: 1.45 mg/kg/injection, schedule: Q## X001 (ip), vehicle: saline): 294 % of control
- T/C (dose: 1.5 mg/kg/injection, schedule: Q01DX001 (ip), vehicle: saline): 159 % of control and 188 % of control and 212 % of control
- T/C (dose: 1.8 mg/kg/injection, schedule: Q## X004 (ip), vehicle: saline): 100 % of control
- T/C (dose: 2.9 mg/kg/injection, schedule: Q01DX001 (ip), vehicle: saline): 158 % of control
- T/C (dose: 2.9 mg/kg/injection, schedule: Q## X001 (ip), vehicle: saline): 297 % of control
- T/C (dose: 26.0 micrograms/kg/injection, schedule: Q01DX010 (ip), vehicle: saline): 123 % of control and 208 % of control
- T/C (dose: 27.0 micrograms/kg/injection, schedule: Q01DX015 (ip), vehicle: saline): 167 % of control and 173 % of control
- T/C (dose: 40.0 micrograms/kg/injection, schedule: Q01DX015 (ip), vehicle: saline): 161 % of control and 240 % of control
- T/C (dose: 60.0 micrograms/kg/injection, schedule: Q01DX015 (ip), vehicle: saline): 221 % of control and 226 % of control
- T/C (dose: 90.0 micrograms/kg/injection, schedule: Q01DX015 (ip), vehicle: saline): 215 % of control and 228 % of control and 260 % of control
- T/C (dose: 135.0 micrograms/kg/injection, schedule: Q01DX015 (ip), vehicle: saline): 221 % of control and 281 % of control and 297 % of control
- T/C (dose: 200.0 micrograms/kg/injection, schedule: Q01DX015 (ip), vehicle: saline): 196 % of control and 233 % of control and 340 % of control
- T/C (dose: 300.0 micrograms/kg/injection, schedule: Q01DX010 (ip), vehicle: saline): 181 % of control and 240 % of control
- T/C (dose: 300.0 micrograms/kg/injection, schedule: Q01DX015 (ip), vehicle: saline): 200 % of control

SMILES: N=C(N)SCc1c2ccccc2c(CSC(=N)N)c2ccccc12
- T/C (dose: 0.31 mg/kg/injection, schedule: Q01DX010 (ip), vehicle: saline): 117 % of control
- T/C (dose: 0.63 mg/kg/injection, schedule: Q01DX010 (ip), vehicle: saline): 121 % of control

SMILES: CC(=O)Nc1c(Cl)cc2c(c1Cl)Cc1cc([N+](=O)[O-])ccc1-2
- T/C (dose: 15.6 mg/kg/injection, schedule: Q01DX010 (ip), vehicle: saline): 107 % of control
- T/C [1]: 107 % of control
- T/C (dose: 62.5 mg/kg/injection, schedule: Q01DX010 (ip), vehicle: saline): 107 % of control and 100 % of control
- T/C (dose: 125.0 mg/kg/injection, schedule: Q01DX010 (ip), vehicle: saline): 107 % of control

SMILES: CN(C)c1ccc(C(N)=O)cn1
- T/C (dose: 1.5 mg/kg/injection, schedule: Q01DX010 (ip), vehicle: saline): 115 % of control
- T/C (dose: 3.0 mg/kg/injection, schedule: Q01DX010 (ip), vehicle: saline): 123 % of control

SMILES: CC[C@@H](c1ccc(O)cc1)[C@@H](CC)c1ccc(O)cc1
- T/C (dose: 25.0 mg/kg/injection, schedule: Q01DX010 (sc), vehicle: water): 100 % of control
- T/C (dose: 50.0 mg/kg/injection, schedule: Q01DX010 (sc), vehicle: water): 92 % of control
- T/C (dose: 100.0 mg/kg/injection, schedule: Q01DX010 (sc), vehicle: water): 92 % of control
- T/C (dose: 200.0 mg/kg/injection, schedule: Q01DX010 (sc), vehicle: water): 92 % of control

SMILES: COc1ccc2c(c1O)-c1c(OC)c(OC)cc3c1[C@H](C2)[N+](C)(C)CC3
- T/C [5]: 96 % of control
- T/C [6]: 103 % of control
- T/C (dose: 5.0 mg/kg/injection, schedule: Q01DX010 (ip), vehicle: saline): 103 % of control
- T/C [2]: 100 % of control

SMILES: C1CCNCC1
- T/C [10]: 96 % of control
- T/C [11]: 100 % of control
- T/C [12]: 100 % of control
- T/C [13]: 96 % of control

SMILES: NCCCC(N)C(=O)NCCCCCCNCCCCCCNC(=O)C(N)CCCN (stereo not drawn)
- T/C [10]: 100 % of control
- T/C [11]: 92 % of control
- T/C [12]: 100 % of control
- T/C [13]: 96 % of control

SMILES: NC(Cn1ccc(=O)c(O)c1)C(=O)O (stereo not drawn)
- T/C (dose: 118.0 mg/kg/injection, schedule: Q01DX010 (ip), vehicle: saline): 92 % of control
- T/C (dose: 178.0 mg/kg/injection, schedule: Q01DX010 (ip), vehicle: saline): 92 % of control
- T/C (dose: 267.0 mg/kg/injection, schedule: Q01DX010 (ip), vehicle: saline): 92 % of control

SMILES: O=c1cccc2n1CC1CNC[C@H]2C1
- T/C (dose: 0.78 mg/kg/injection, schedule: Q01DX010 (ip), vehicle: saline): 100 % of control
- T/C [7]: 100 % of control
- T/C [8]: 103 % of control
- T/C [9]: 100 % of control
